In ChEMBL document CHEMBL1129533, “Thrombus imaging using technetium-99m-labeled high-potency GPIIb/IIIa receptor antagonists. Chemistry and initial biological studies” (J Med Chem, 1996):
Where a SMILES comes first, the peptide text is derived from it. Bridges are numbered along the chain shown (N, C = ends). [ ]: non-standard residue; d: D form. The star is where a group is joined. Propyl(3-NH2) = NCCC*; Acm = CC(=O)NC*

Experiments:
[1] = species: Homo sapiens; test: Inhibition of ADP-induced platelet aggregation in human platelet rich citreated plasma in presence of 10-20 uM ADP.; type: functional
[2] = species: Canis familiaris; test: Percent injected dose in the blood was determined by canine thrombosis model; type: functional, organism-based; details: Canis lupus familiaris
[3] = species: Canis familiaris; test: Percent injected dose in the thrombus was determined by canine thrombosis model; type: functional, organism-based; details: Canis lupus familiaris
[4] = Thrombus to blood ratio was determined by canine thrombosis model; type: functional
[5] = Thrombus to muscle ratio was determined by canine thrombosis model; type: functional, Muscle tissue

SMILES	IC50 [1]	further results
CC(=O)NCSC[C@H](NC(=O)CNC(=O)[C@H](CSCNC(C)=O)NC(=O)CNC(=O)[C@H](CCCCN)NC(=O)[C@@H]1CSCC(=O)N[C@H](Cc2ccc(O)cc2)C(=O)N[C@@H](CSCCCN)C(=O)NCC(=O)N[C@@H](CC(=O)O)C(=O)N1)C(N)=O	160 nM	–
NCCCC[C@H](NC(=O)CNC(=O)CNC(=O)[C@@H]1CSCC(=O)N[C@H](Cc2ccc(O)cc2)C(=O)N[C@@H](CSCCCN)C(=O)NCC(=O)N[C@@H](CC(=O)O)C(=O)N1)C(=O)NCC(=O)N[C@@H](CCCCN)C(=O)NCC(=O)N[C@@H](CCCCN)C(=O)N[C@@H](CCCCN)C(=O)NCC(=O)N[C@@H](CS)C(=O)NCC(N)=O	110 nM	–
CC(=O)NCSC[C@H](NC(=O)CNC(=O)CNC(=O)[C@@H]1CSCC(=O)N[C@H](Cc2ccc(O)cc2)C(=O)N[C@@H](CSCCCN)C(=O)NCC(=O)N[C@@H](CC(=O)O)C(=O)N1)C(=O)NCC(=O)N[C@@H](CSCNC(C)=O)C(=O)NCC(=O)NCC(=O)N[C@@H](CSC1CC(=O)[N+]2(CCCCCC2)C1=O)C(N)=O (some centres not stated)	140 nM	–
NCCCC[C@H](NC(=O)[C@@H]1CSCC(=O)N[C@H](Cc2ccc(O)cc2)C(=O)N[C@@H](CSCCCN)C(=O)NCC(=O)N[C@@H](CC(=O)O)C(=O)N1)C(=O)N[C@@H](CS)C(=O)NCC(N)=O	140 nM	–
N=C(N)c1ccc(C[C@H]2NC(=O)[C@H](Cc3ccc(O)cc3)NC(=O)CSC[C@H](C(=O)N[C@@H](CCCCN)C(=O)NCC(=O)N[C@@H](CSCC(=O)CC(=O)N[C@@H](CCCCN)C(=O)N[C@@H](CCCCN)C(=O)NCC(=O)N[C@@H](CS)C(=O)O)C(=O)NCC(N)=O)NC(=O)[C@@H](CC(=O)O)NC(=O)CNC2=O)cc1	–	ID/g [2]: 0.0025%; ID/g [3]: 0.017%; Ratio [4]: 7.2
N=C(N)c1ccc(C[C@@H]2NC(=O)[C@@H](Cc3ccc(O)cc3)NC(=O)CSC[C@@H](C(=O)N[C@@H](CCCCN)C(=O)NCC(=O)N[C@@H](CSCC(=O)CC(=O)N[C@@H](CCCCN)C(=O)N[C@@H](CCCCN)C(=O)NCC(=O)N[C@@H](CS)C(=O)O)C(=O)NCC(N)=O)NC(=O)[C@H](CC(=O)O)NC(=O)CNC2=O)cc1 [listing 2 of 2 here]	–	Ratio [5]: 41
CC(=O)NCSC[C@H](NC(=O)CNC(=O)[C@H](CSCNC(C)=O)NC(=O)CNC(=O)CNC(=O)CNC(=O)[C@@H]1CSCC(=O)N[C@H](Cc2ccc(O)cc2)C(=O)N[C@@H](CSCCCN)C(=O)NCC(=O)N[C@@H](CC(=O)O)C(=O)N1)C(N)=O ({CH2CO}-[dY]C(Propyl(3-NH2))GDCGGGC(Acm)GC(Acm)-NH2; thioether N-5)	300 nM	–
CC(=O)NCSC[C@H](NC(=O)CNC(=O)[C@H](CSCNC(C)=O)NC(=O)CNC(=O)CNC(=O)[C@@H]1CSCC(=O)N[C@H](Cc2ccc(O)cc2)C(=O)N[C@@H](CCCN=C(N)N)C(=O)NCC(=O)N[C@@H](CC(=O)O)C(=O)N1)C(N)=O	1300 nM	–
CC(=O)NCSC[C@H](NC(=O)CNC(=O)[C@H](CSCNC(C)=O)NC(=O)CNC(=O)CNC(=O)CNC(=O)[C@@H]1CSCC(=O)N[C@H](Cc2ccc(O)cc2)C(=O)N[C@@H](CCCN=C(N)N)C(=O)NCC(=O)N[C@@H](CC(=O)O)C(=O)N1)C(N)=O	1400 nM	–

Now from value to compound, other results behind:

IC50 [1]	SMILES	further results
90 nM	CC(=O)NCSC[C@H](NC(=O)CNC(=O)CNC(=O)[C@H]1CSCC(=O)N[C@@H](Cc2ccc(O)cc2)C(=O)N[C@H](CSCCCN)C(=O)NCC(=O)N[C@H](CC(=O)O)C(=O)N1)C(=O)NCC(=O)N[C@@H](CSCNC(C)=O)C(=O)NCC(=O)NCC(=O)N[C@@H](CSCC(=O)CC(=O)N[C@@H](CCCCN)C(=O)N[C@@H](CCCCN)C(=O)NCC(=O)N[C@@H](CS)C(=O)O)C(=O)NCC(=O)[C@@H]1CSC23SCC(NC(=O)[C@H](CSCC(=O)CC(=O)N[C@@H](CCCCN)C(=O)N[C@@H](CCCCN)C(=O)NCC(=O)N[C@@H](CS)C(=O)O)NC(=O)CNC(=O)CNC(=O)[C@H](CSCNC(C)=O)NC(=O)CNC(=O)[C@H](CSCNC(C)=O)NC(=O)CNC(=O)CNC(=O)[C@H]4CSCC(=O)N[C@@H](Cc5ccc(O)cc5)C(=O)N[C@H](CSCCCN)C(=O)NCC(=O)N[C@H](CC(=O)O)C(=O)N4)C(=O)N2CC(=O)N13 (some centres not stated)	–
110 nM	CC(=O)NCSC[C@H](NC(=O)CNC(=O)CNC(=O)[C@@H]1CSCC(=O)N[C@H](Cc2ccc(O)cc2)C(=O)N[C@@H](CSCCCN)C(=O)NCC(=O)N[C@@H](CC(=O)O)C(=O)N1)C(=O)NCC(=O)N[C@@H](CSCNC(C)=O)C(=O)NCC(=O)NCC(=O)N[C@@H](CSCC(=O)CC(=O)N[C@@H](CCCCN)C(=O)N[C@@H](CCCCN)C(=O)NCC(=O)N[C@@H](CS)C(=O)O)C(N)=O	–
40 nM	CC(=O)NCSC[C@H](NC(=O)CNC(=O)CNC(=O)[C@@H]1CSCC(=O)N[C@H](Cc2ccc(O)cc2)C(=O)N[C@@H](CSCCCN)C(=O)NCC(=O)N[C@@H](CC(=O)O)C(=O)N1)C(=O)NCC(=O)N[C@@H](CSCNC(C)=O)C(=O)NCC(=O)NCC(=O)N[C@@H](CSC1CC(=O)[N+]2(CCCNCCC2)C1=O)C(N)=O (some centres not stated)	–
30 nM	N=C(N)c1ccc(C[C@@H]2NC(=O)[C@@H](Cc3ccc(O)cc3)NC(=O)CSC[C@@H](C(=O)N[C@@H](CCCCN)C(=O)NCC(=O)N[C@@H](CSCC(=O)CC(=O)N[C@@H](CCCCN)C(=O)N[C@@H](CCCCN)C(=O)NCC(=O)N[C@@H](CS)C(=O)O)C(=O)NCC(N)=O)NC(=O)[C@H](CC(=O)O)NC(=O)CNC2=O)cc1 [listing 1 of 2 here]	–
40 nM	NCCCC[C@H](NC(=O)[C@@H]1CSCC(=O)N[C@H](Cc2ccc(O)cc2)C(=O)N[C@@H](CSCCCN)C(=O)NCC(=O)N[C@@H](CC(=O)O)C(=O)N1)C(=O)NCC(=O)N[C@@H](CS)C(=O)NCC(=O)N[C@@H](CS)C(=O)NCC(=O)NCC(=O)N[C@@H](CSC1CC(=O)[N+]2(COC2)C1=O)C(N)=O (some centres not stated)	–
30 nM	CC(=O)NCSC[C@H](NC(=O)CNC(=O)CNC(=O)[C@@H]1CSCC(=O)N[C@H](Cc2ccc(O)cc2)C(=O)N[C@@H](CSCCCN)C(=O)NCC(=O)N[C@@H](CC(=O)O)C(=O)N1)C(=O)NCC(=O)N[C@@H](CSCNC(C)=O)C(=O)NCC(=O)NCC(=O)N[C@@H](CSC1CCNC(=O)CNCCNC(=O)CNCCNC(=O)C1)C(N)=O (some centres not stated)	–
80 nM	N=C(N)c1ccc(C[C@@H]2NC(=O)[C@@H](Cc3ccc(O)cc3)NC(=O)CSC[C@@H](C(=O)N[C@@H](CCCCN)C(=O)NCC(=O)N[C@@H](CS)C(=O)NCC(N)=O)NC(=O)[C@H](CC(=O)O)NC(=O)CNC2=O)cc1	–
80 nM	C[C@H](NC(=O)[C@H](CS)NC(=O)CNC(=O)[C@H](CCCCN)NC(=O)[C@H](CCCCN)NC(=O)CNC(=O)CNC(=O)[C@H](CCCCN)NC(=O)CNC(=O)CNC(=O)[C@H](CCCCN)NC(=O)[C@@H]1CSCC(=O)N[C@H](Cc2ccc(O)cc2)C(=O)N[C@@H](CSCCCN)C(=O)NCC(=O)N[C@@H](CC(=O)O)C(=O)N1)C(N)=O	–
40 nM	N=C(N)c1ccc(C[C@H]2NC(=O)[C@H](Cc3ccc(O)cc3)NC(=O)CSC[C@H](C(=O)N[C@@H](CCCCN)C(=O)NCC(=O)N[C@@H](CSCC(=O)CC(=O)N[C@@H](CCCCN)C(=O)N[C@@H](CCCCN)C(=O)NCC(=O)N[C@@H](CS)C(=O)O)C(=O)NCC(=O)NCC(=O)[C@@H]3CSC45SCC(NC(=O)CNC(=O)[C@H](CSCC(=O)CC(=O)N[C@@H](CCCCN)C(=O)N[C@@H](CCCCN)C(=O)NCC(=O)N[C@@H](CS)C(=O)O)NC(=O)CNC(=O)[C@H](CCCCN)NC(=O)[C@H]6CSCC(=O)N[C@@H](Cc7ccc(O)cc7)C(=O)N[C@H](Cc7ccc(C(=N)N)cc7)C(=O)NCC(=O)N[C@H](CC(=O)O)C(=O)N6)C(=O)N4CC(=O)N35)NC(=O)[C@@H](CC(=O)O)NC(=O)CNC2=O)cc1 (some centres not stated)	–
30 nM	CC(=O)NCSC[C@H](NC(=O)CNC(=O)CNC(=O)[C@@H]1CSCC(=O)N[C@H](Cc2ccc(O)cc2)C(=O)N[C@@H](CSCCCN)C(=O)NCC(=O)N[C@@H](CC(=O)O)C(=O)N1)C(=O)NCC(=O)N[C@@H](CSCNC(C)=O)C(=O)NCC(=O)NCC(=O)N[C@@H](CSCC(=O)CC(=O)N[C@@H](CCCCN)C(=O)N[C@@H](CCCCN)C(=O)N[C@@H](CCCCN)C(=O)N[C@@H](CCCCN)C(=O)NCC(=O)N[C@@H](CS)C(=O)O)C(N)=O	–
50 nM	N=C(N)c1ccc(C[C@@H]2NC(=O)[C@@H](Cc3ccc(O)cc3)NC(=O)CSC[C@@H](C(=O)NCC(=O)NCC(=O)N[C@@H](CS)C(=O)NCC(=O)N[C@@H](CS)C(=O)NCC(=O)NCC(=O)N[C@@H](CSCC(=O)CC(=O)N[C@@H](CCCCN)C(=O)N[C@@H](CCCCN)C(=O)NCC(=O)N[C@@H](CS)C(=O)O)C(N)=O)NC(=O)[C@H](CC(=O)O)NC(=O)CNC2=O)cc1	–
